Reference: patent publication US8795632B2, “Disease animal model for chronic pain” (Astellas Pharma Inc., priority 2008, dated 2014)

Experiments:
[1] = test system: reserpine repeated administration-induced skin pain sensation threshold value reduction; assay: Effects of drugs on reserpine repeated administration-induced reduction of skin pain sensation threshold value; type: in vivo, rat; settings: male rats, pregabalin, diclofenac oral, pramipexole subcutaneous; for effect on reserpine repeated administration-induced skin pain sensation threshold value reduction: 5 days after final reserpine (1 mg/kg s.c. x 3 days), 30-240 min after drug, duloxetine; for dose at which the effect was statistically significant by the index of skin pain sensation threshold value: 5 days after final reserpine, two-way analysis of variance and Bonferroni
[2] = test system: reserpine repeated administration-induced muscle pressure pain threshold value reduction; assay: Effects of drugs on reserpine repeated administration-induced reduction of muscle pressure pain threshold value; type: in vivo, rat; settings: for effect on reserpine repeated administration-induced muscle pressure pain threshold value reduction / dose at which the effect was statistically significant by the index of muscle pressure pain threshold value: male rats, pregabalin, duloxetine, diclofenac oral, pramipexole subcutaneous; for effect on reserpine repeated administration-induced muscle pressure pain threshold value reduction: 5 days after final reserpine (1 mg/kg s.c. x 3 days), 30-240 min after drug; for dose at which the effect was statistically significant by the index of muscle pressure pain threshold value: 5 days after final reserpine, two-way analysis of variance and Bonferroni; for efficacy on this disease animal model (reserpine-treated mammal): summary statement, chronic muscle pain and tactile allodynia model
Procedure: Male Sprague-Dawley rats (Japan SLC, Hamamatsu, Japan) were used as the animal. A total of 30 rats were used for each drug. As shown in Example 1, 1 mg/kg of reserpine was repeatedly administered subcutaneously on the back of 24 rats once a day for 3 days to induce reduction of the muscle pressure pain threshold value and skin pain sensation threshold value. The other 6 rats were subjected to the test as a healthy control group without carrying out the reserpine treatment.
All of the evaluations of drug effects were carried out 5 days after the final administration of reserpine.
On the day of drug effect evaluation (5 days after the final administration of reserpine), the muscle pressure pain threshold value and skin pain sensation threshold value were firstly measured on all of the rats (24 reserpine-treated rats and 6 healthy rats). The 24 reserpine-treated rats were divided into 4 groups based on the doses of the test drug, and the muscle pressure pain threshold value and skin pain sensation threshold value were measured after 30, 60, 120 or 240 minutes of the drug or solvent administration. On the 6 healthy rats, the drug administration was not carried out, but only the measurement of muscle pressure pain threshold value and skin pain sensation threshold value was carried out.
All of the measured values were expressed as average value±standard error. Statistical significance test of the measured values between the test drug administration groups and the solvent administration group at each point of time was carried out by a two-way analysis of variance and the Bonferroni method. Probability value (P) of less than 5% was judged as statistically significant (P<0.05 was expressed as * in the graphs).

fibromyalgia patients = settings: cited from earlier work; for pain symptom score of fibromyalgia patients in comparison with the placebo group: Non-patent References 7 to 9; for effect in the treatment of fibromyalgia patients (clinical trial): literature clinical trials

SMILES | effect on reserpine repeated administration-induced skin pain sensation threshold value reduction [1] | dose at which the effect was statistically significant by the index of skin pain sensation threshold value [1] [mg/kg] | effect on reserpine repeated administration-induced muscle pressure pain threshold value reduction [2] | dose at which the effect was statistically significant by the index of muscle pressure pain threshold value [2] [mg/kg] | efficacy on this disease animal model (reserpine-treated mammal) [2] | pain symptom score of fibromyalgia patients in comparison with the placebo group (fibromyalgia patients) | effect in the treatment of fibromyalgia patients (clinical trial) (fibromyalgia patients)
O=C(O)Cc1ccccc1Nc1c(Cl)cccc1Cl [diclofenac] | did not recover | > 10 | did not recover | > 10 | not effective | – | –
CNCC[C@H](Oc1cccc2ccccc12)c1cccs1 [duloxetine] | showed a tendency to recover the reserpine repeated administration-induced skin pain sensation pain threshold value reduction but was not statistically significant | – | statistically significantly recovered | 30 | effective | alleviates the pain symptom score of fibromyalgia patients statistically significantly | usefulness has been proved
CC(C)Cc1ccc(C(C)C(=O)O)cc1 (stereo not shown) [ibuprofen] | – | – | – | – | – | – | do not have a significant effect
COc1ccc2cc([C@H](C)C(=O)O)ccc2c1 [naproxen] | – | – | – | – | – | – | do not have a significant effect
CC(C)C[C@H](CN)CC(=O)O [pregabalin] | dose-dependently recovered | 30 | dose-dependently recovered | – | effective | alleviates the pain symptom score of fibromyalgia patients statistically significantly | usefulness has been proved
